Reference: PubChem BioAssay (NCI)
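A five-concentration, 48-hour dose response in 96-well plates underlies each endpoint, interpolated linearly between surrounding concentrations. TGI marks complete inhibition of growth.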

Assays:
Assay in all cases: NCI tumour cell line growth inhibition, 48 h
A498 renal = system: A498 renal
A549 NSCLC = system: A549 NSCLC
CCRF-CEM leukemia = system: CCRF-CEM leukemia
COLO 205 colon = system: COLO 205 colon
DLD-1 colon = system: DLD-1 colon
DMS 114 small cell lung = system: DMS 114 small cell lung
DMS 273 small cell lung = system: DMS 273 small cell lung
EKVX NSCLC = system: EKVX NSCLC
HCC-2998 colon = system: HCC-2998 colon
HCT-116 colon = system: HCT-116 colon
HCT-15 colon = system: HCT-15 colon
HL-60(TB) leukemia = system: HL-60(TB) leukemia
HOP-18 NSCLC = system: HOP-18 NSCLC
HOP-62 NSCLC = system: HOP-62 NSCLC
HOP-92 NSCLC = system: HOP-92 NSCLC
HT29 colon = system: HT29 colon
IGROV1 ovarian = system: IGROV1 ovarian
K-562 leukemia = system: K-562 leukemia
KM12 colon = system: KM12 colon
KM20L2 colon = system: KM20L2 colon
LOX IMVI melanoma = system: LOX IMVI melanoma
M19-MEL melanoma = system: M19-MEL melanoma
MALME-3M melanoma = system: MALME-3M melanoma
MCF7 breast = system: MCF7 breast
MOLT-4 leukemia = system: MOLT-4 leukemia
NCI-H226 lung = system: NCI-H226 lung
NCI-H23 lung = system: NCI-H23 lung
NCI-H460 lung = system: NCI-H460 lung
NCI-H522 lung = system: NCI-H522 lung
NCI/ADR-RES ovarian = system: NCI/ADR-RES ovarian
OVCAR-3 ovarian = system: OVCAR-3 ovarian
OVCAR-4 ovarian = system: OVCAR-4 ovarian
OVCAR-5 ovarian = system: OVCAR-5 ovarian
OVCAR-8 ovarian = system: OVCAR-8 ovarian
P388 leukemia = system: P388 leukemia
P388/ADR leukemia = system: P388/ADR leukemia
RPMI-8226 leukemia = system: RPMI-8226 leukemia
RXF 393 renal = system: RXF 393 renal
SF-268 CNS = system: SF-268 CNS
SF-295 CNS = system: SF-295 CNS
SF-539 CNS = system: SF-539 CNS
SK-MEL-2 melanoma = system: SK-MEL-2 melanoma
SK-MEL-28 melanoma = system: SK-MEL-28 melanoma
SK-MEL-5 melanoma = system: SK-MEL-5 melanoma
SK-OV-3 ovarian = system: SK-OV-3 ovarian
SN12C renal = system: SN12C renal
SN12K1 renal = system: SN12K1 renal
SNB-19 CNS = system: SNB-19 CNS
SNB-75 CNS = system: SNB-75 CNS
SNB-78 CNS = system: SNB-78 CNS
SW-620 colon = system: SW-620 colon
U251 CNS = system: U251 CNS
UACC-257 melanoma = system: UACC-257 melanoma
UACC-62 melanoma = system: UACC-62 melanoma
UO-31 renal = system: UO-31 renal
XF 498 CNS = system: XF 498 CNS

Measured: TGI

O=C1ON(Cc2ccccc2)C(c2ccccc2)N1c1ccccc1 (stereo unspecified)
> 100 µM: all assays above
